# In patent publication US9624209B2, “Substituted phenylureas and phenylamides as vanilloid receptor ligands” (Gruenenthal GmbH, priority 2009, dated 2017):
# Target: T1, vanilloid receptor 1 (VR1/TRPV1 receptor) (Homo sapiens, UniProt Q8NER1)
# T1 construct: expressed in transfected cells; host or cells: CHO K1 cells (ECACC), stably transfected
# Experiment: VR1/TRPV1 receptor affinity, capsaicin stimulus (human)
# Assay type: cell-based, human being
# Parameters: key to (f) Ki (human being) [nM] Cap: result in words: AG=agonist; pAG=partial agonist; NE=no effect
# Conditions: @ 5 μM, Tables 8-12, read-out: (f) Ki (human being) [nM] Cap: inhibition (as a percentage)
# T1 sequence (Q8NER1 whole entry): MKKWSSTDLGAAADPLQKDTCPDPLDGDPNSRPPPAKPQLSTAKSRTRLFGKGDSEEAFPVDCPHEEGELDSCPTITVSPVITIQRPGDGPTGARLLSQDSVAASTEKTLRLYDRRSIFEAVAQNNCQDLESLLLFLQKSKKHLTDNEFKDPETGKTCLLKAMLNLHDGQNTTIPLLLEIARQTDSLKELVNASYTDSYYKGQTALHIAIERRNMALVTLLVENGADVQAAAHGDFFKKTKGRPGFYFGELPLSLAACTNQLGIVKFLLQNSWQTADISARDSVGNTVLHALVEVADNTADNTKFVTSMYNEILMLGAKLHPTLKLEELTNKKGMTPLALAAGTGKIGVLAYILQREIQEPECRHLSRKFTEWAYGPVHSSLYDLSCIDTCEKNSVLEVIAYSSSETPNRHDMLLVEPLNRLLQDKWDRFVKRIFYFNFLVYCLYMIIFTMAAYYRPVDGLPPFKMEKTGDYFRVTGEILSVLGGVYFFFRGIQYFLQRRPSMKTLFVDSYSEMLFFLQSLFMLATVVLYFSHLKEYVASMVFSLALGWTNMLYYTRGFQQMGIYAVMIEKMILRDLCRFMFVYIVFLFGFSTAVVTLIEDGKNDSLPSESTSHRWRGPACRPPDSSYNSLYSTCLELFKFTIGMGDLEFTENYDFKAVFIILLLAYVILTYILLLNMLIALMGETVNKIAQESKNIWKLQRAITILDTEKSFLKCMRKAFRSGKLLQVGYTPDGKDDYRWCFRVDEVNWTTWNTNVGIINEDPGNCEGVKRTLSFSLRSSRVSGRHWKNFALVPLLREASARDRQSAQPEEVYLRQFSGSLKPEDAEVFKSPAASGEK
row,SMILES,inhibition at 5 µM
1,"O=C(NCc1cc(C(F)(F)F)nn1-c1cccc(Cl)c1)Nc1ccc(CN2CCCC2)cc1 [Example B99, 1-[[2-(3-Chlorophenyl)-5-(trifluoromethyl)-2H-pyrazol-3-yl]-methyl]-3-[4-(pyrrolidin-1-yl-methyl)-phenyl]-urea]",43%
2,"O=C(NCc1cc(C(F)(F)F)nn1-c1cccc(Cl)c1)Nc1ccc(CN2CCCCC2)c(F)c1 [Example B100, 1-[[2-(3-Chlorophenyl)-5-(trifluoromethyl)-2H-pyrazol-3-yl]-methyl]-3-[3-fluoro-4-(piperidin-1-yl-methyl)-phenyl]-urea]",17%
3,"CC(C)(C)c1cc(CNC(=O)Nc2ccc(CN3CCCC3)c(F)c2)n(-c2cccc(Cl)c2)n1 [Example B101, 1-[[5-tert-Butyl-2-(3-chlorophenyl)-2H-pyrazol-3-yl]-methyl]-3-[3-fluoro-4-(pyrrolidin-1-yl-methyl)-phenyl]-urea]",43%
4,"CC(C(=O)NCc1cc(C(F)(F)F)nn1-c1ccc(F)c(F)c1)c1ccc(N2CCCS2(=O)=O)c(F)c1 (stereo not shown) [Example C3, N-[[2-(3,4-Difluoro-phenyl)-5-(trifluoromethyl)-2H-pyrazol-3-yl]-methyl]-2-[4-(1,1-dioxo-[1,2]thiazolidin-2-yl)-3-fluoro-phenyl]-propionamide]",54%
5,"O=C(NCc1cc(C(F)(F)F)nn1-c1cccc(F)c1)Nc1ccc(N2CCCC2)c(F)c1 [Example C4, 1-[[2-(3-Fluorophenyl)-5-(trifluoromethyl)-2H-pyrazol-3-yl]-methyl]-3-(3-fluoro-4-pyrrolidin-1-yl-phenyl)-urea]",13%
6,"O=C(NCc1cc(C(F)(F)F)nn1-c1cccc(F)c1)Nc1ccc(N2CC(O)C2)c(F)c1 [Example C9, 1-[3-Fluoro-4-(3-hydroxy-azetidin-1-yl)-phenyl]-3-[[2-(3-fluorophenyl)-5-(trifluoromethyl)-2H-pyrazol-3-yl]-methyl]-urea]",50%
7,"CC(C(=O)NCc1cc(C(F)(F)F)nn1-c1cccc(F)c1)c1ccc(S(C)(=O)=O)c(F)c1 (stereo not shown) [Example D3, 2-(3-Fluoro-4-methylsulfonyl-phenyl)-N-[[2-(3-fluorophenyl)-5-(trifluoromethyl)-2H-pyrazol-3-yl]-methyl]-propionamide]",55%

# Same assay, conditions: Tables 8-12
row,SMILES,(f) Ki (human being) [nM] Cap: result in words
1,"CC(C(=O)NCc1cc(C(C)(C)C)nn1-c1cccc(Cl)c1)c1ccc(S(C)(=O)=O)c(F)c1 (stereo not shown) [Example D1, N-[[5-tert-Butyl-2-(3-chlorophenyl)-2H-pyrazol-3-yl]-methyl]-2-(3-fluoro-4-methylsulfonyl-phenyl)-propionamide]",AG

# Same assay, conditions: Tables 8-12, read-out: (f) Ki (human being) [nM] Cap
row,SMILES,Ki
1,"CC(C)c1cccc(-n2nc(C(F)(F)F)cc2CNC(=O)C(C)c2ccc(CNS(N)(=O)=O)c(F)c2)c1 (stereo not shown) [Example B94, 2-[3-Fluoro-4-[(sulfamoylamino)-methyl]-phenyl]-N-[[2-(3-isopropyl-phenyl)-5-(trifluoromethyl)-2H-pyrazol-3-yl]-methyl]-propionamide]",0.9 nM
2,"CC(C(=O)NCc1cc(C2CC2)nn1-c1cccc(Cl)c1)c1ccc(CNS(N)(=O)=O)c(F)c1 (stereo not shown) [Example B95, N-[[2-(3-Chlorophenyl)-5-cyclopropyl-2H-pyrazol-3-yl]-methyl]-2-[3-fluoro-4-[(sulfamoylamino)-methyl]-phenyl]-propionamide]",22 nM
3,"CC(C(=O)NCc1cc(C(C)(C)C)nn1-c1ccc(F)c(Cl)c1)c1ccc(CNS(N)(=O)=O)c(F)c1 (stereo not shown) [Example B96, N-[[5-tert-Butyl-2-(3-chloro-4-fluoro-phenyl)-2H-pyrazol-3-yl]-methyl]-2-[3-fluoro-4-[(sulfamoylamino)-methyl]-phenyl]-propionamide]",0.9 nM
4,"CC(C(=O)NCc1cc(C(F)(F)F)nn1-c1cccc(Cl)c1)c1ccc(CNS(N)(=O)=O)c(F)c1 (stereo not shown) [Example B97, N-[[2-(3-Chlorophenyl)-5-(trifluoromethyl)-2H-pyrazol-3-yl]-methyl]-2-[3-fluoro-4-[(sulfamoylamino)-methyl]-phenyl]-propionamide]",1 nM
5,"COc1cc(C(C)C(=O)NCc2cc(C(C)(C)C)nn2-c2cccc(Cl)c2)ccc1CNS(C)(=O)=O (stereo not shown) [Example B98, N-[[5-tert-Butyl-2-(3-chlorophenyl)-2H-pyrazol-3-yl]-methyl]-2-[4-(methanesulfonamido-methyl)-3-methoxy-phenyl]-propionamide]",3 nM
6,"CC(C(=O)NCc1cc(C(F)(F)F)nn1-c1cccc(Cl)c1)c1ccc(CNS(N)(=O)=O)cc1 (stereo not shown) [Example B102, N-[[2-(3-Chlorophenyl)-5-(trifluoromethyl)-2H-pyrazol-3-yl]-methyl]-2-[4-[(sulfamoylamino)-methyl]-phenyl]-propionamide]",1 nM
7,"CC(C(=O)NCc1cc(C(C)(C)C)nn1-c1cccc(Cl)c1)c1ccc(CNS(N)(=O)=O)cc1 (stereo not shown) [Example B103, N-[[5-tert-Butyl-2-(3-chlorophenyl)-2H-pyrazol-3-yl]-methyl]-2-[4-[(sulfamoylamino)-methyl]-phenyl]-propionamide]",0.7 nM
8,"CC(C(=O)NCc1cc(C(F)(F)F)nn1-c1cccc(Cl)c1)c1ccc(N2CCCS2(=O)=O)c(F)c1 (stereo not shown) [Example C1, N-[[2-(3-Chlorophenyl)-5-(trifluoromethyl)-2H-pyrazol-3-yl]-methyl]-2-[4-(1,1-dioxo-[1,2]thiazolidin-2-yl)-3-fluoro-phenyl]-propionamide]",49 nM
9,"CC(C(=O)NCc1cc(C(C)(C)C)nn1-c1ccc(F)c(Cl)c1)c1ccc(N2CCCS2(=O)=O)c(F)c1 (stereo not shown) [Example C2, N-[[5-tert-Butyl-2-(3-chloro-4-fluoro-phenyl)-2H-pyrazol-3-yl]-methyl]-2-[4-(1,1-dioxo-[1,2]thiazolidin-2-yl)-3-fluoro-phenyl]-propionamid]",50 nM
10,"O=C(NCc1cc(C(F)(F)F)nn1-c1cccc(Cl)c1)Nc1ccc(N2CCOCC2)c(F)c1 [Example C5, 1-[[2-(3-Chlorophenyl)-5-(trifluoromethyl)-2H-pyrazol-3-yl]-methyl]-3-(3-fluoro-4-morpholin-4-yl-phenyl)-urea]",44 nM
11,"O=C(NCc1cc(C(F)(F)F)nn1-c1cccc(Cl)c1)Nc1ccc(N2CC(O)C2)c(F)c1 [Example C6, 1-[[2-(3-Chlorophenyl)-5-(trifluoromethyl)-2H-pyrazol-3-yl]-methyl]-3-[3-fluoro-4-(3-hydroxy-azetidin-1-yl)-phenyl]-urea]",43 nM
12,"CC(C)(C)c1cc(CNC(=O)Nc2ccc(N3CC(O)C3)c(F)c2)n(-c2cccc(Cl)c2)n1 [Example C7, 1-[[5-tert-Butyl-2-(3-chlorophenyl)-2H-pyrazol-3-yl]-methyl]-3-[3-fluoro-4-(3-hydroxy-azetidin-1-yl)-phenyl]-urea]",15 nM
13,"CC(C(=O)NCc1cc(C(F)(F)F)nn1-c1cccc(Cl)c1)c1ccc(S(C)(=O)=O)c(F)c1 (stereo not shown) [Example D2, N-[[2-(3-Chlorophenyl)-5-(trifluoromethyl)-2H-pyrazol-3-yl]-methyl]-2-(3-fluoro-4-methylsulfonyl-phenyl)-propionamide]",73 nM
14,"CC(C(=O)NCc1cc(C(F)(F)F)nn1-c1ccc(F)c(Cl)c1)c1ccc(S(C)(=O)=O)c(F)c1 (stereo not shown) [Example D4, N-[[2-(3-Chloro-4-fluoro-phenyl)-5-(trifluoromethyl)-2H-pyrazol-3-yl]-methyl]-2-(3-fluoro-4-methylsulfonyl-phenyl)-propionamide]",41 nM
